Experimental data as given in patent US20130045267A1, “METHODS OF USING AGENTS THAT MODULATE CLAUDIN EXPRESSION” (priority 2010, published 2013).

Assays:
human epidermis sheet = assay: TEER in human epidermal sheets (snap-well system); conditions: 1 mM; for TEER, dmem + SC_1 / TEER, dmem + SC_2 / TEER, mean SC: T0 = 1.00
Text: Epidermal sheets were obtained from discarded human skin using a weck blade (0.08 inch). Epidermal samples were mounted in an adapted snap-well system (Pierro et al., “Zonula Occludens Toxin Structure-Function Analysis, Identification of the Fragment Biologically Active on Tight Junctions and of the Zonulin Receptor Binding Domain,” J. Biol.

[1] = tested on: human cultured keratinocytes and reconstructed human epidermis; conditions: literature (Kurasawa et al. 2009); cited from earlier work
CLDN1 mRNA = assay: qPCR of CLDN1 mRNA in PHK treated with PPARγ agonist; assay type: cell-based, human; conditions: 5 μM, PHK differentiated in high Calcium media (DMEM) 24 h
Protocol: (§1) PHK were differentiated in high Calcium media (DMEM) in the presence of CIG 5 μM in DMSO or media with equivalent amount of DMSO alone, for 24 h. Total RNA was extracted from PHK using the QlAshredder spin column (Qiagen) and RNeasy RNA isolation kits (Qiagen). The quality of total RNA samples (RNA Integrity Number, RIN) was assessed using an Agilent 2100 Bioanalyzer (Agilent Technologies, Palo Alto, Calif.).
(§2) qPCR was performed using the iScript™ cDNA Synthesis kit and iQ™ SYBER Green Supermix assay system (Bio-Rad Laboratories). All PCR amplifications were carried out in triplicate on an iQ5 Multicolor real-time PCR detection system (Bio-Rad). Primers were designed and synthesized by Integrated DNA Technologies. Relative gene expression was calculated by using the 2^−ΔΔCt method, as previously described. The normalized Ct value of each sample was calculated using GAPDH as an endogenous control gene.

occludin mRNA = assay: qPCR of occludin mRNA in PHK treated with PPARγ agonist; assay type: cell-based, human; conditions: 5 μM, PHK differentiated in high Calcium media (DMEM) 24 h
Protocol: as §1, §2

[2] = tested on: primary human keratinocytes (PHK); assay: Trans Epithelial Electric Resistance (TEER) in PHK monolayers; assay type: cell-based
Protocol: PHK were plated at a subconfluent density of 2.5−3×10^4 cells/filter in Transwell insert and cultured in Keratinocyte-SFM media until confluent. TEER was measured using an EVOMX voltohmmeter (World Precision Instruments, Sarasota, Fla.). The resistance of cell-free filters was subtracted from each experimental value.
(§3) PHK were plated on glass coverslips at 2-3×10^5 cells/well in a 6-well plate or at 2-3×10^4 cells/filter in Transwell insert (Costar; PET membrane, 0.4 μm pore size, 6.5 mm insert) in Keratinocyte-SFM without antibiotics. The next day after plating, cells were transfected with claudin-1 specific or control (scrambled) siRNAs (Santa Cruz) using Lipofectamine™ 2000 transfection Reagent (Invitrogen). TEER and permeability experiments were conducted 48 hours after PHK were switched to differentiation media.
TEER was measured in PHK as described above. PHK were stimulated with S. aureus-derived peptidoglycan (PGN, 0.2-20 μg/ml, n=3-7) (FIG. 19A), Malp-2 (10-1000 ng/ml, n=3) (FIG. 19B), and Pam3CSK4 a TLR1/2 ligand (0.01-20 μg/ml, n=3-6) (FIG. 19C). Data are presented by analyzing the area under the TEER curve and normalized to the mean values for the control group (media alone)*p<0.05; **p<0.01.

claudin-1 = assay: Western blot of claudin-1 protein in primary human keratinocytes; assay type: cell-based; conditions: 50 ng/ml; for claudin-1 expression over control: 48 hours, differentiating PHK, n=3; for claudin-1 expression by Western blot: PHK differentiated 48 h
Protocol: Human keratinocytes were isolated from neonatal foreskin. Poumay et al., “Basal Detachment of the Epidermis Using Dispase: Tissue Spatial Organization and Fate of Integrin Alpha 6 Beta 4 and Hemidesmosomes,” J. Invest. Dermatol. 102:111-7 (1994), which is hereby incorporated by reference in its entirety. PHK were cultured in Keratinocyte-SFM (Invitrogen/Gibco) with 1% Pen/Strep, 0.2% Amphotericin B (Invitrogen/Gibco). To differentiate PHK, cells were grown in DMEM (Invitrogen/Gibco) with 10% heat-inactivated fetal bovine serum (Invitrogen/Gibco) and 1% Pen/Strep, 0.2% Amphotericin B (Invitrogen/Gibco). For TJ modulation experiments, the following cytokines were added alone or in combination to the differentiation media; human IL-4 (50 ng/ml; R&D system) and IL-13 (50 ng/ml; R&D system).
PHK were lysed on ice in RIPA lysis buffer (20 mM Tris, 50 mM NaCl, 2 mM EDTA, 2 mM EGTA, 1% sodium deoxycholate, 1% TX-100, and 2% SDS, pH 7.4), with 1:100 Protease Inhibitor Cocktail (Sigma), 1:100 Phosphatase Inhibitor Cocktail ([…] for 30 min at 4° C. The samples were heated at 95° C. for 10 min and then centrifuged at 14,000 rpm for 15 min. Forty μg of protein, determined by BCA (Pierce) in NuPage LDS Sample Buffer (Invitrogen) was applied to 4-12% NuPage Bis-Tris gels (Invitrogen). Electrophoresis was performed under reducing conditions with MES SDS Buffer (Invitrogen). Membranes were incubated in blotting solution (5% non-fat dry milk in PBS+0.05% Tween 20) at RT for 1 h and then incubated with primary antibodies; claudin-1 (JAY.8; Zymed), occludin (OC/3F10; Zymed) and GAPDH (FL-355; Santa Cruz). An HRP-linked secondary antibody (GE Healthcare) was used with ECL (GE Healthcare) to visualize bands by autoradiography with Kodak BioMax MR film. The pixel intensity of each band was estimated with Image J.
as §3

occludin and ZO-1 = assay: Expression of occludin and ZO-1 in PHK differentiated with Th2 cytokines; assay type: cell-based, human; conditions: PHK differentiated with cytokine
Protocol: Human keratinocytes were isolated from neonatal foreskin. Poumay et al., “Basal Detachment of the Epidermis Using Dispase: Tissue Spatial Organization and Fate of Integrin Alpha 6 Beta 4 and Hemidesmosomes,” J. Invest. Dermatol. 102:111-7 (1994), which is hereby incorporated by reference in its entirety. PHK were cultured in Keratinocyte-SFM (Invitrogen/Gibco) with 1% Pen/Strep, 0.2% Amphotericin B (Invitrogen/Gibco). To differentiate PHK, cells were grown in DMEM (Invitrogen/Gibco) with 10% heat-inactivated fetal bovine serum (Invitrogen/Gibco) and 1% Pen/Strep, 0.2% Amphotericin B (Invitrogen/Gibco). For TJ modulation experiments, the following cytokines were added alone or in combination to the differentiation media; human IL-4 (50 ng/ml; R&D system) and IL-13 (50 ng/ml; R&D system). […]
Previous studies have shown that claudin-1 expression in noncutaneous epithelial cells can be modulated by cytokines and growth factors. […] To test this possibility, PHK were differentiated in the presence or absence of Th2 cytokines, IL-4 and IL-13, and the expression of claudin-1, occludin and ZO-1 was evaluated. […]

## CCCCCCCCCC(=O)[O-].[Na+] [SC, Sodium Decanoate]
Human epidermis sheet; 4 h
  TEER, dmem + SC_1: 0.79
  TEER, dmem + SC_2: 0.69
  TEER, mean SC: 0.74
Human epidermis sheet; 24 h
  TEER, dmem + SC_1: 0.56
  TEER, dmem + SC_2: 0.51
  TEER, mean SC: 0.54
Human epidermis sheet; after 4 hours of treatment
  TEER over media alone: 0.74 fold
Human epidermis sheet; after 24 hours
  TEER over media alone: 0.54 fold
[1]
  paracellular permeability: increased paracellular permeability
  transepithelial electrical resistance: decreased transepithelial electrical resistance

## CC1(COc2ccc(CC3SC(=O)NC3=O)cc2)CCCCC1 (stereo not shown) [ciglitazone]
CLDN1 mRNA
  CLDN1 mRNA expression over DMSO alone: 1.7 fold
Occludin mRNA
  occludin mRNA expression: 2.0 fold
Occludin mRNA; listed as CIG
  occludin mRNA expression: 2 fold

## IL-13: human IL-13 (R&D system), Th2 cytokine
[2]; 0.5-100 ng/ml, PHK
  TEER, dose response: only a slight increase in TEER
claudin-1
  claudin-1 expression over control: 1.6±0.3 fold
  claudin-1 expression by Western blot: enhanced expression of claudin-1
Occludin and ZO-1
  expression of occludin and ZO-1: no effect

## Pam3CSK4 [reference compound]
[2]; PGN 0.2-20 μg/ml, Malp-2 10-1000 ng/ml, Pam3CSK4 0.01-20 μg/ml
  tight junction function (area under the TEER curve normalized to media alone): increase tight junction function

B1: IL-4: human IL-4 (R&D system), Th2 cytokine (protein, UniProt P05112 25-153, looked up)
Interleukin-4: HKCDITLQEIIKTLNSLTEQKTLCTELTVTDIFAASKNTTEKETFCRAATVLRQFYSHHEKDTRCLGATAQQFHRHKQLIRFLKRLDRNLWGLAGLNSCPVKEANQSTLENFLERLKTIMREKYSKCSS
[2]; 50 ng/ml, PHK, n=4
  TEER peak: 166±24 Ohms×cm^2
claudin-1
  claudin-1 expression over control: 2.1±0.4 fold
  claudin-1 expression by Western blot: enhanced expression of claudin-1
Occludin and ZO-1
  expression of occludin and ZO-1: no effect
